Here are results for one compound from patent US7598234B2, “Steroid derived antibiotics” (Brigham Young University, priority 1998, dated 2009).

Broadly, the melting point is the temperature, or range, at which the solid turns liquid.

Turning to `C[C@H](CCCO)C1CC[C@H]2[C@@H]3[C@H](N)C[C@@H]4C[C@H](N)CC[C@]4(C)[C@H]3C[C@H](N)[C@]12C` (stereo partly shown), the melting point is 200 to 202 °C.
